According to patent publication US10780083B1, “Charged ion channel blockers and methods for use” (Nocion Therapeutics, Inc., priority 2019, dated 2020):

Assay: PAMPA membrane permeability assay
Assay type: in vitro ADME
Details: pH 7.4 buffer, incubated for 4 hours, passive diffusion
Experimental: The PAMPA assay (pION, Inc., Woburn Mass.) was used to determine the ability of compounds of the invention to cross an artificial lipid membrane by passive diffusion. Test compounds were dissolved in DMSO (10 mM) and diluted 200-fold in buffer (pION Inc., pH 7.4) to provide 50 uM stock solutions. Buffer (150 μL) was added to a UV blank plate and stock solutions (150 μL) were transferred to a UV reference plate. The blank and reference spectrum were read using a spectrophotometer. Stock solutions (200 μL) were added to the donor plate of the PAMPA sandwich plate and an accept plate painted with GIT lipid (pION Inc, 5 μL) was placed on top. Buffer (200 μL) was added to the acceptor plate and the PAMPA sandwich plate was incubated for 4 hours. Aliquots (150 μL) from the acceptor plate were added to a UV plate and read as acceptor spectrum. Aliquots (150 μL) of the donor solutions were added to a UV analysis plate and read as donor spectrum. The permeability coefficient of test compounds was calculated using PAMPA Explorer™ software (version 3.5.0.4) based on the AUC of the reference plate, the donor plate, and the acceptor plate.

SMILES	Papp at 4 h, 50 uM [×10⁻⁶ cm/s]
Cc1cccc(C)c1NC(=O)C[N+]1(Cc2ccccc2)CCCC1.[Br-] [2A′, 1-benzyl-1-(2-((2,6-dimethylphenyl)amino)-2-oxoethyl) pyrrolidin-1-ium bromide]	< 1
Cc1cccc(C)c1NC(=O)C[N+]1(Cc2ccccc2)CCCCCC1.[Br-] [4A′, 1-benzyl-1-(2-((2,6-dimethylphenyl)amino)-2-oxoethyl) azepan-1-ium bromide]	< 1
Cc1cccc(C)c1NC(=O)C[N+]1(Cc2ccccc2)CCCCCCC1.[Br-] [6A′, 1-benzyl-1-(2-((2,6-dimethylphenyl)amino)-2-oxoethyl) azocan-1-ium bromide]	< 1

Next, values leading:

Papp at 4 h, 50 uM [×10⁻⁶ cm/s]	SMILES
< 1	CCC(C(=O)Nc1c(C)cccc1C)[N+]1(Cc2ccccc2)CCCCC1.[Br-] (centres unmarked) [3A′, 1-benzyl-1-(1-((2,6-dimethylphenyl)amino)-1-oxobutan-2-yl)piperidin-1-ium bromide]
< 1	CCC(C(=O)Nc1c(C)cccc1C)[N+]1(Cc2ccccc2)CCCCCC1.[Br-] (centres unmarked) [5A′, 1-benzyl-1-(1-((2,6-dimethylphenyl)amino)-1-oxobutan-2-yl) azepan-1-ium bromide]
